Data from ChEMBL document CHEMBL1123664, “Preparation and antitumor activity of new mitomycin A analogues” (J Med Chem, 1987).
Several values for one entry are separate records, joined by “and”; a condition that tells them apart may be missing. Equal values may be shown once.

Experiments:
P388 [1] = test: Antitumor activity against intraperitoneally implanted P388 leukemia cells in mice expressed as ratio of median survival time for treated group to that of control group at an optimal dose of 3.2 mg/kg; format: functional, Mus musculus; details: route intraperitoneal
[2] = Partition coefficient (logP); format: physicochemical; details: octanol/water
P388 [3] = test: Antitumor activity against intraperitoneally implanted P388 leukemia cells in mice expressed as […] effective dose at an optimal dose of 3.2 mg/kg; format: functional; details: Mus musculus, P388, ip, route intraperitoneal, read-out: MED
B16 [4] = test: Antitumor activity against subcutaneously B16 melanoma cells in mice at an optimal dose of 0.8 mg/kg expressed as […] effective dose; format: functional, Mus musculus; details: route subcutaneous; for minimal effective dose at 0.8 mg/kg: Mus musculus, B16, sc, read-out: MED
P388 [5] = test: Antitumor activity against intraperitoneally implanted P388 leukemia cells in mice expressed as ratio of median survival time for treated group to that of control group at an optimal dose of 0.8 mg/kg; format: functional, Mus musculus; details: route intraperitoneal
B16 [6] = test: Antitumor activity against subcutaneously B16 melanoma cells in mice expressed as ratio of median survival time for treated group to that of control group at an optimal dose of 0.8 mg/kg; format: functional, Mus musculus; details: route subcutaneous
P388 [7] = test: Antitumor activity against intraperitoneally implanted P388 leukemia cells in mice at an optimal dose of 0.8 mg/kg expressed as […] effective dose; format: functional; details: Mus musculus, P388, ip, route intraperitoneal, read-out: MED
P388 [8] = test: Antitumor activity against intraperitoneally implanted P388 leukemia cells in mice at an optimal dose 0.8 mg/kg expressed as […] effective dose; format: functional; details: Mus musculus, P388, ip, route intraperitoneal, read-out: MED
P388 [9] = test: Antitumor activity against intraperitoneally implanted P388 leukemia cells in mice expressed as ratio of median survival time for treated group to that of control group at an optimal dose 0.8 mg/kg; format: functional, Mus musculus; details: route intraperitoneal
P388 [10] = test: Antitumor activity against intraperitoneally implanted P388 leukemia cells in mice at an optimal dose of 3.2 mg/kg expressed as […] effective dose; format: functional; details: Mus musculus, P388, ip, route intraperitoneal, read-out: MED
P388 [11] = test: Antitumor activity against intraperitoneally implanted P388 leukemia cells in mice expressed as ratio of median survival time for treated group to that of control group at an optimal dose of 1.6 mg/kg; format: functional, Mus musculus; details: route intraperitoneal
P388 [12] = test: Antitumor activity against intraperitoneally implanted P388 leukemia cells in mice at an optimal dose of 1.6 mg/kg expressed as […] effective dose; format: functional; details: Mus musculus, P388, ip, route intraperitoneal, read-out: MED
B16 [13] = test: Antitumor activity against subcutaneously B16 melanoma cells in mice expressed as […] effective dose at an optimal dose of 0.8 mg/kg; format: functional; details: Mus musculus, B16, sc, route subcutaneous, read-out: MED
P388 [14] = test: Antitumor activity against intraperitoneally implanted P388 leukemia cells in mice at an optimal dose of 0.4 mg/kg expressed as […] effective dose; format: functional, Mus musculus; details: route intraperitoneal; for minimal effective dose at 0.4 mg/kg: Mus musculus, P388, ip, read-out: MED
P388 [15] = test: Antitumor activity against intraperitoneally implanted P388 leukemia cells in mice expressed as ratio of median survival time for treated group to that of control group at an optimal dose of 0.4 mg/kg; format: functional, Mus musculus; details: route intraperitoneal
P388 [16] = test: Antitumor activity against intraperitoneally implanted P388 leukemia cells in mice at an optimal dose of 6.4 mg/kg expressed as […] effective dose; format: functional; details: Mus musculus, P388, ip, route intraperitoneal, read-out: MED
P388 [17] = test: Antitumor activity against intraperitoneally implanted P388 leukemia cells in mice expressed as ratio of median survival time for treated group to that of control group at an optimal dose of 6.4 mg/kg; format: functional, Mus musculus; details: route intraperitoneal
B16 [18] = test: (§1) Antitumor activity against subcutaneously B16 melanoma cells in mice expressed as ratio of median survival time for treated group to that of control group at an optimal dose of 1-3 mg/kg; format: functional, Mus musculus
B16 [19] = test: Antitumor activity against subcutaneously B16 melanoma cells in mice at an optimal dose of 1.6 mg/kg expressed as […] effective dose; format: functional; details: Mus musculus, B16, sc, route subcutaneous, read-out: MED
B16 [20] = test: Antitumor activity against subcutaneously B16 melanoma cells in mice expressed as ratio of median survival time for treated group to that of control group at an optimal dose of 1.6 mg/kg; format: functional, Mus musculus; details: route subcutaneous
B16 [21] = test: Antitumor activity against subcutaneously B16 melanoma cells in mice expressed as ratio of median survival time for treated group to that of control group at an optimal dose of 0.4 mg/kg; format: functional, Mus musculus; details: route subcutaneous
B16 [22] = test: Antitumor activity against subcutaneously B16 melanoma cells in mice at an optimal dose of 0.4 mg/kg expressed as […] effective dose; format: functional; details: Mus musculus, B16, sc, route subcutaneous, read-out: MED
B16 [23] = test: as §1; format: functional, Mus musculus; remark: listed apart in the source
P388 [24] = test: Antitumor activity against intraperitoneally implanted P388 leukemia cells in mice expressed as ratio of median survival time for treated group to that of control group at an optimal dose of 0.2 mg/kg; format: functional, Mus musculus; details: route intraperitoneal
P388 [25] = test: Antitumor activity against intraperitoneally implanted P388 leukemia cells in mice expressed as ratio of median survival time for treated group to that of control group given in equally divided doses on days 1,4 and 7; format: functional, Mus musculus
P388 [26] = test: Antitumor activity against intraperitoneally implanted P388 leukemia cells in mice at an optimal dose of 0.2 mg/kg expressed as […] effective dose; format: functional; details: Mus musculus, P388, ip, route intraperitoneal, read-out: MED

CO[C@@]12C(COC(N)=O)C3=C(C(=O)C(C)=C(OCc4ccccc4)C3=O)N1CC1NC12 (stereo not given in full)
T/C (P388 [1]): 167%
logP [2]: 2.22
minimal effective dose at 3.2 mg/kg (P388 [3]): < 0.2 mg/kg

COCCOCCOC1=C(C)C(=O)C2=C(C1=O)C(COC(N)=O)[C@@]1(OC)C3NC3CN21 (stereo not given in full)
minimal effective dose at 0.8 mg/kg (B16 [4]): 0.4 mg/kg
MED (B16 [4]): 0.4 mg/kg
T/C (P388 [5]): 225%
T/C (B16 [6]; 0.8 mg/kg): >191% and >265%
minimal effective dose at 0.8 mg/kg (P388 [7]): < 0.1 mg/kg
logP [2]: 0.32

CO[C@@]12C(COC(N)=O)C3=C(C(=O)C(C)=C(OCC4CCCCO4)C3=O)N1CC1NC12 (stereo not given in full)
minimal effective dose at 0.8 mg/kg (P388 [8]): 0.1 mg/kg
T/C (P388 [9]): 161%
logP [2]: 1.79

CO[C@@]12C(COC(N)=O)C3=C(C(=O)C(C)=C(OCCCCl)C3=O)N1CC1NC12 (stereo not given in full)
T/C (P388 [1]): 150%
minimal effective dose at 3.2 mg/kg (P388 [10]): 0.2 mg/kg
logP [2]: 1.65

CO[C@@]12C(COC(N)=O)C3=C(C(=O)C(C)=C(OCCCO)C3=O)N1CC1NC12 (stereo not given in full)
T/C (P388 [11]): 175%
minimal effective dose at 1.6 mg/kg (P388 [12]): 0.05 mg/kg
logP [2]: 0.14

CO[C@@]12C(COC(N)=O)C3=C(C(=O)C(C)=C(OCCOCCO)C3=O)N1CC1NC12 (stereo not given in full)
minimal effective dose at 0.8 mg/kg (B16 [13]): 0.4 mg/kg
minimal effective dose at 0.4 mg/kg (P388 [14]): 0.1 mg/kg
T/C (B16 [6]): >265%
T/C (P388 [15]): 210%

CO[C@@]12C(COC(N)=O)C3=C(C(=O)C(C)=C(OCc4ccco4)C3=O)N1CC1NC12 (stereo not given in full)
minimal effective dose at 6.4 mg/kg (P388 [16]): 6.4 mg/kg
T/C (P388 [17]): 139%
logP [2]: 1.6

CO[C@@]12C(COC(N)=O)C3=C(C(=O)C(C)=C(OC4CCOC4)C3=O)N1CC1NC12 (stereo not given in full)
T/C (P388 [1]): 178%
T/C (B16 [18]): 135%
minimal effective dose at 3.2 mg/kg (P388 [10]): < 0.05 mg/kg
minimal effective dose at 1.6 mg/kg (B16 [19]): 1.6 mg/kg
T/C (B16 [20]): 198%
logP [2]: 0.79

CCOCCOCCOC1=C(C)C(=O)C2=C(C1=O)C(COC(N)=O)[C@@]1(OC)C3NC3CN21 (stereo not given in full)
T/C (P388 [11]): 167%
T/C (B16 [21]): 196%
minimal effective dose at 1.6 mg/kg (P388 [12]): < 0.1 mg/kg
logP [2]: 0.82
minimal effective dose at 0.4 mg/kg (B16 [22]): 0.2 mg/kg

CO[C@@]12C(COC(N)=O)C3=C(C(=O)C(C)=C(OCCSSCCO)C3=O)N1CC1NC12 (stereo not given in full)
T/C (P388 [11]): 259%
minimal effective dose at 0.8 mg/kg (B16 [4]): 0.2 mg/kg
T/C (B16 [6]): 243%
logP [2]: 1.35
T/C (B16 [23]): 136%

CO[C@@]12C(COC(N)=O)C3=C(C(=O)C(C)=C(OCCO)C3=O)N1CC1NC12 (stereo not given in full)
T/C (B16 [21]): 178%
T/C (P388 [24]): 217%
minimal effective dose at 0.4 mg/kg (P388 [14]): 0.0063 mg/kg
MED (P388 [14]): 0.0063 mg/kg
T/C (P388 [25]): 194%
T/C (P388 [15]; 0.4 mg/kg): 178% and >328%
minimal effective dose at 0.2 mg/kg (P388 [26]): < 0.1 mg/kg
minimal effective dose at 0.4 mg/kg (B16 [22]): 0.2 mg/kg

CO[C@@]12C(COC(N)=O)C3=C(C(=O)C(C)=C(OCCSCCO)C3=O)N1CC1NC12 (stereo not given in full)
T/C (P388 [5]): 250%
minimal effective dose at 0.8 mg/kg (P388 [7]): < 0.1 mg/kg
logP [2]: 1.07

CO[C@@]12C(COC(N)=O)C3=C(C(=O)C(C)=C(OCC4CCC4)C3=O)N1CC1NC12 (stereo not given in full)
T/C (P388 [11]): 144%
minimal effective dose at 1.6 mg/kg (P388 [12]): 0.4 mg/kg
logP [2]: 2.26
